Measured values from patent publication US10858335B2 (Rigel Pharmaceuticals, Inc., priority 2014, dated 2020).

These compounds were tested on GDF8 signaling (p-SMAD-3 (Ser423/425)) (assay: AlphaScreen SureFire SMAD3 (p-Ser423/425) assay, GDF8-stimulated cells (GDF pSMAD)). Settings: MPC11; GDF8-stimulated; p-SMAD3 AlphaScreen; read-out: GDF pSMAD (MPC11) (inhibition of GDF8 signaling).
Assay type: cell-based
Excerpt: Biological Example 1: AlphaScreen® SureFire® SMAD3 (p-Ser423/425) Assay
The p-SMAD-3 (Ser423/425) SureFire® assay has been designed to measure the phosphorylation of endogenous cellular p-SMAD-3 (Ser423/425) in cell lysates and is a system for the screening of both modulators of receptor activation (e.g. agonists and antagonists) as well as agents acting intracellularly, such as small molecule inhibitors of upstream events. The assay will measure p-SMAD-3 (Ser423/425) activation by either cloned or endogenous receptors, and can be applied to primary cells.
P-SMAD-3 (Ser423/425) SureFire® Assay Protocols
Step A: Preparation of Buffers
1× Lysis buffer: 1 ml of 5× Lysis buffer was diluted with 4 ml of sterile water. After dilution, excess 1× Lysis buffer can be frozen and thawed up to 5 times without loss in activity.
Activation buffer: The buffer was warmed slowly to 37° C. and gently mixed to re-suspend. Activation buffer can be stored at room temperature with no loss in activity.
Reaction buffer: The buffer was kept at 4° C. while in use.
AlphaScreen® Protein A IgG Kit: The kit was stored at 4° C. in the dark.
Reaction buffer+Activation buffer+AlphaScreen® Acceptor beads: Reaction buffer (40 parts), Activation Buffer (10 parts) and Acceptor beads (1 part) were mixed and the mixture was stored at room temperature and used the same day. Mixture was added to 384-well plates; excess mixture was discarded.
Dilution buffer+AlphaScreen® Donor beads: Dilution buffer (20 parts) and Donor beads (1 part) were mixed and the mixture was stored at room temperature and used the same day. Excess mixture was discarded.
Assay control samples: After reconstitution in 250 μl of water, lysates were at −20° C. in single use aliquots.
Step B: Preparation of Samples and Cells
96-well Assay Protocol for 293FT and RMS13 adherent cells can be carried out manually or in high throughput with liquid handling robots.
The cells (80 μL of cells for 96 well plates) were plated in collagen coated tissue culture plates in RPMI or FreeStyle medium (Invitrogen) and incubated overnight. For manual analysis, 6 plates for GDF8, 6 plates for TGFβ, and optionally 6 plates for AlkSca(ALK5 constitutively active) were used.
The compound dilution plates were prepared as follows: 12 μL of DMSO was transferred into first column of 96-well plate, and 16 μL of DMSO was transferred into columns 2-12 of the 96-well plate. 12 μL of compound solution was transferred into first column of the DMSO-containing 96-well plate. Three-fold dilution was performed up to column 10 of the DMSO-containing 96-well plate.
Step C: Treatment and Analysis
The plate containing cells were treated with compounds for about 10 minutes, and then ligand was added. GDF8 or TGFb was added to plates to stimulate. 293FL cells were stimulated for 90 minutes at 37° C.; and RMS13 cells were stimulated for 60 minutes at 37° C. The medium was then removed from the cells, and 1× Lysis Buffer (about 25 μL) was added and the plate was gently agitated on plate shaker for 5-10 minutes.
The lysate (5 μL) was then placed into 384-well shallow plates avoiding the generation of bubbles. To this, the Reaction Buffer+Activation Buffer+AlphaScreen® Acceptor beads mixture (5 μL) was added. The plate was sealed with adhesive cover and shielded from light (e.g., with metal foil), and agitated gently on plate shaker for 2 hours at room temperature.
Dilution buffer+AlphaScreen® Donor beads (2 μL) was then added, and the plate was intubated on the plate shaker for an additional 1½ hours. After completion, the plate was read on Synergy-4 or Enspire plate reader, using AlphaScreen® pSMAD3® settings.
Representative results for inhibition of GDF8 signaling are shown in Table 2(data=GDF pSMAD (MPC11) (μM)): […]

IC50 [µM] | SMILES
0.137 | Nc1ncnc2ccc(-c3cccnc3-c3ccc(F)c(Cl)c3)cc12 [compound 448, 6-(2-(3-Chloro-4-fluorophenyl)pyridin-3-yl)quinazolin-4-amine]

Same assay, conditions: Mus musculus, MPC-11, GDF8-stimulated pSMAD3, MPC11; tested as the salt form given; read-out: GDF pSMAD (MPC11) (μM), inhibition of GDF8 signaling

SMILES | IC50 [µM]
Cc1c(F)cc(C(F)F)cc1-c1ncccc1-c1ccc2ncnc(N)c2c1 [compound 1034, 6-(2-(5-(difluoromethyl)-3-fluoro-2-methylphenyl)pyridin-3-yl)quinazolin-4-amine] | 0.342
CN(C)C(=O)Oc1cccc(-c2ncccc2-c2ccc3ncnc(N)c3c2)c1 [compound 979, 3-(3-(4-aminoquinazolin-6-yl)pyridin-2-yl)phenyl dimethylcarbamate] | 14

Same assay, conditions: Mus musculus, MPC-11, MPC11; GDF8-stimulated; p-SMAD3 AlphaScreen; read-out: GDF pSMAD (MPC11) (inhibition of GDF8 signaling)

SMILES | IC50 [µM]
Cc1cc(-c2ncc(COCC(N)=O)cc2-c2ccc3nccnc3c2)ccc1F [compound 233, 2-((6-(4-Fluoro-3-methylphenyl)-5-(quinoxalin-6-yl)pyridin-3-yl)methoxy)acetamide] | 6.69
Cc1cccc(-c2ncccc2-c2ccc3ncn(CCCO)c3c2)c1 [compound 38] | 3.23
Cc1c(-c2cccnc2-c2cc(Cl)c(F)cc2F)ccc2ncnn12 [compound 813, 6-(2-(5-Chloro-2,4-difluorophenyl)pyridin-3-yl)-5-methyl-[1,2,4]triazolo[1,5-a]pyridine] | 2.43
CCOc1cnc(-c2ccc(F)cc2)c(-c2ccc3[nH]ncc3c2)c1 [Compound 6, 5-(5-Ethoxy-2-(4-fluorophenyl)pyridin-3-yl)-1H-indazole] | 18.7
Cc1cccc(-c2ncccc2-c2ccc3ncncc3c2)c1 [compound 364, 6-(2-(m-Tolyl)pyridin-3-yl)quinazoline] | 0.338
Cc1cc(-c2ncccc2-c2ccc3ncnc(OC4CCN(c5ccncc5)CC4)c3c2)ccc1F [compound 447, 6-(2-(4-Fluoro-3-methylphenyl)pyridin-3-yl)-4-((1-(pyridin-4-yl)piperidin-4-yl)oxy)quinazoline] | 0.753
Fc1ccc(Cl)cc1-c1ncccc1-c1ccc2nccn2c1 [compound 721, 6-(2-(5-Chloro-2-fluorophenyl)pyridin-3-yl)imidazo[1,2-a]pyridine] | 0.44
[2H]C([2H])([2H])c1cccc(-c2ncccc2-c2ccc3ncsc3c2)c1 [compound 603, 6-(2-(3-(Methyl-d3)phenyl)pyridin-3-yl)benzo[d]thiazole] | 0.109
CC(=O)Nc1cnc(-c2cccc(C3CC3)c2)c(-c2ccc3[nH]ncc3c2)c1 [Compound 25, N-(6-(3-Cyclopropylphenyl)-5-(1H-indazol-5-yl)pyridin-3-yl)acetamide] | 0.612
Cc1cc(-c2ncc(NCc3ccc(C#N)cc3)cc2-c2ccc3ncsc3c2)ccc1F [compound 309, 4-(((5-(Benzo[d]thiazol-6-yl)-6-(4-fluoro-3-methylphenyl)pyridin-3-yl)amino)methyl)benzonitrile] | 1.48
Cc1cc(-c2ncccc2-c2ccc3ncn(CCCN4CCOCC4)c3c2)ccc1F [compound 252, 4-(3-(6-(2-(4-fluoro-3-methylphenyl)pyridin-3-yl)-1H-benzo[d]imidazol-1-yl)propyl)morpholine] | 12.7
Cc1cc(-c2ncc(NC(=O)CCCc3ccncc3)cc2-c2ccc3ncsc3c2)ccc1F [compound 317, N-(5-(Benzo[d]thiazol-6-yl)-6-(4-fluoro-3-methylphenyl)pyridin-3-yl)-4-(pyridin-4-yl)butanamide] | 5.5
Cc1cc(-c2ncccc2-c2ccc3ncnc(OCCc4scnc4C)c3c2)ccc1F [compound 445, 5-(2-((6-(2-(4-Fluoro-3-methylphenyl)pyridin-3-yl)quinazolin-4-yl)oxy)ethyl)-4-methylthiazole] | 0.515
Clc1cccc(-c2ncccc2-c2ccc3nccn3n2)c1 [compound 936, 6-(2-(3-Chlorophenyl)pyridin-3-yl)imidazo[1,2-b]pyridazine] | 0.228
Cc1cc(Cl)cc(-c2ncccc2-c2ccc3ncnn3c2)c1 [compound 775, 6-(2-(3-Chloro-5-methylphenyl)pyridin-3-yl)-[1,2,4]triazolo[1,5-a]pyridine] | 3.96
CC(=O)Nc1ccc(CNc2cnc(-c3ccc(F)c(C)c3)c(-c3ccc4ncsc4c3)c2)cc1 [compound 338, N-(4-(((5-(Benzo[d]thiazol-6-yl)-6-(4-fluoro-3-methylphenyl)pyridin-3-yl)amino)methyl)phenyl)acetamide] | 0.164
Fc1ccc(-c2ncccc2-c2ccc3[nH]ncc3c2)cc1 [Compound 66, 5-[2-(4-Fluorophenyl)pyridin-3-yl]-1H-indazole] | 1.78
Cc1cc(-c2ncccc2-c2ccc3ncc(C(=O)Nc4ccc(C(N)=O)cc4)n3c2)ccc1F [compound 618, N-(4-Carbamoylphenyl)-6-(2-(4-fluoro-3-methylphenyl)pyridin-3-yl)imidazo[1,2-a]pyridine-3-carboxamide] | 1.12
Cc1cccc(-c2ncccc2-c2ccc3nc[nH]c3c2)c1 [Compound 178, 6-(2-m-Tolylpyridin-3-yl)-1H-benzo[d]imidazole] | 0.187

Second part, the compound after the results:

IC50 [µM] | SMILES
0.234 | Cc1cc(-c2ncccc2-c2ccn3ncc(C(=O)NCCN)c3c2)ccc1F [compound 683, N-(2-Aminoethyl)-5-(2-(4-fluoro-3-methylphenyl)pyridin-3-yl)pyrazolo[1,5-a]pyridine-3-carboxamide]
3.78 | Cc1cc(-c2ncccc2-c2ccc3ncc(C(=O)NC4CCNCC4)n3c2)ccc1F [compound 652, 6-(2-(4-Fluoro-3-methylphenyl)pyridin-3-yl)-N-(piperidin-4-yl)imidazo[1,2-a]pyridine-3-carboxamide]
2.14 | CN1CCC(NC(=O)c2cnn3ccc(-c4cccnc4-c4ccc(F)c(Cl)c4)nc23)CC1 [compound 899, 5-(2-(3-Chloro-4-fluorophenyl)pyridin-3-yl)-N-(1-methylpiperidin-4-yl)pyrazolo[1,5-a]pyrimidine-3-carboxamide]
0.436 | Fc1ccc(-c2ncccc2-c2ccc3ncnn3c2)cc1Cl [compound 692, 6-(2-(3-Chloro-4-fluorophenyl)pyridin-3-yl)-[1,2,4]triazolo[1,5-a]pyridine]
2.35 | N#Cc1cnn2ccc(-c3cccnc3-c3ccc(F)c(Cl)c3)nc12 [compound 900, 5-(2-(3-Chloro-4-fluorophenyl)pyridin-3-yl)pyrazolo[1,5-a]pyrimidine-3-carbonitrile]
0.265 | Cc1cc(-c2ncccc2-c2ccc3nccn3c2)ccc1F [Compound 165, 6-(2-(4-Fluoro-3-methylphenyl)pyridin-3-yl)imidazo[1,2-a]pyridine]
1.75 | Cn1c(=O)cnc2ccc(-c3cccnc3-c3ccc(F)c(Cl)c3)cc21 [compound 887, 7-(2-(3-Chloro-4-fluorophenyl)pyridin-3-yl)-1-methylquinoxalin-2(1H1)-one]
1.4 | Cc1cc(-c2ncccc2-c2ccc3ncnc(NCC4CCN(C)CC4)c3c2)ccc1F [compound 421, 6-(2-(4-Fluoro-3-methylphenyl)pyridin-3-yl)-N-((1-methylpiperidin-4-yl)methyl)quinazolin-4-amine]
1.19 | Clc1ccc(Cl)c(-c2ncccc2-c2ccn3ncnc3c2)c1 [compound 873, 7-(2-(2,5-Dichlorophenyl)pyridin-3-yl)-[1,2,4]triazolo[1,5-a]pyridine]
1.84 | Cc1cc(-c2ncccc2-c2ccc3cnc(C(=O)O)n3c2)ccc1F [compound 257, 6-(2-(4-Fluoro-3-methylphenyl)pyridin-3-yl)imidazo[1,5-a]pyridine-3-carboxylic acid]
